# Laboratory results published in US10799507B2, “5-(7H-pyrrolo[2,3-d]pyrimidin-4-yl)-5-azaspiro[2.5]octane-8-carboxylic acid derivatives as novel JAK kinase inhibitors” (LEO Pharma A/S, priority 2017, dated 2020).
# Key:
# TYK2 = TYK2 (Homo sapiens (Human), UniProt P29597); experiment: JAK kinase assay (HTRF), TYK2; type: biochemical; conditions: catalytic domain, ATP at Km (13 μM)
# Method in brief: (§1)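 HTRF read-out of biotinylated TK peptide phosphorylation (1 μM) after a 20-30 min RT reaction in pH 7.0 Hepes buffer with 5 mM MgCl2 and 0.75% DMSO. JAK3 (His-tagged catalytic domain) used 2 μM ATP; TYK2 (GST-tagged, aa 871-1187) used 13 μM ATP plus 50 nM SEB, each at ATP Km.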
# JAK1 = JAK1 (Homo sapiens (Human), UniProt P23458); experiment: JAK kinase assay (HTRF), JAK1; type: biochemical; conditions: catalytic domain, ATP at Km (7 μM)
# Sequence of JAK1 (P23458 850-1154): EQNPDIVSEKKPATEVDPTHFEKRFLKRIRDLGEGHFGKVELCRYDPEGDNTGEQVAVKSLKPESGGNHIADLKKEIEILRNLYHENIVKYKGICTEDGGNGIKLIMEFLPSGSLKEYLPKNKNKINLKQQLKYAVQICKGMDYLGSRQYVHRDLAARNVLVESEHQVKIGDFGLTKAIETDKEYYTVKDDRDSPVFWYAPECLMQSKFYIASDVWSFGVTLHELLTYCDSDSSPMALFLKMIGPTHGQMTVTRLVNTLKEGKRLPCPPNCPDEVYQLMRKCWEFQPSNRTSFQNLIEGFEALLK
# Method in brief: (§2)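 Catalytic-domain human JAK1 (GST-tagged, aa 850-1154) or His-tagged JAK2, baculovirus-expressed, phosphorylated 1 µM biotinylated TK peptide at Km ATP (JAK1 7 µM, 10 mM MgCl2, 50 nM SEB; JAK2 4 µM, 5 mM MgCl2) in pH 7.0 Hepes, 20-30 min RT. EDTA stop; overnight streptavidin-XL665/cryptate HTRF read.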
# JAK3 = JAK3 (Homo sapiens (Human), UniProt P52333); experiment: JAK kinase assay (HTRF), JAK3; type: biochemical; conditions: catalytic domain, ATP at Km (2 μM)
# Sequence of JAK3 (P52333 822-1111): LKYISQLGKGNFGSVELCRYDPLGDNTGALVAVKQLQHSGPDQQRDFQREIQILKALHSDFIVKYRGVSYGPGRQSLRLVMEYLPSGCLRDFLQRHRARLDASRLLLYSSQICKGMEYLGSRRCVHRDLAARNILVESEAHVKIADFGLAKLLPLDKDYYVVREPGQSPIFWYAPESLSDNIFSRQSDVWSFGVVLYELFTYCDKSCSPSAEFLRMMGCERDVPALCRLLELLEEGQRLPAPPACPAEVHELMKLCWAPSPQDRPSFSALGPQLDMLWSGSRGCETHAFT
# Method in brief: as §1
# JAK2 = JAK2 (Homo sapiens (Human), UniProt O60674); experiment: JAK kinase assay (HTRF), JAK2; type: biochemical; conditions: catalytic domain, ATP at Km (4 μM)
# Sequence of JAK2 (O60674 849-1124): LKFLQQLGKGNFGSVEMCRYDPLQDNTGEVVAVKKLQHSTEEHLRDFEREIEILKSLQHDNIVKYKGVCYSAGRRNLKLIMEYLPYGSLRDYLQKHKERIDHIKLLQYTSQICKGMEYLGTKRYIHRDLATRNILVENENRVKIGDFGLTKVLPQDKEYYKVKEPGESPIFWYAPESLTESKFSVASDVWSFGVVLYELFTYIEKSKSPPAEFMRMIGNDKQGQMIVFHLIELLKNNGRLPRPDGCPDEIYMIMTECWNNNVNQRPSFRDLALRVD
# Method in brief: as §2
# [1] = in vitro metabolic stability in human liver microsomes; type: in vitro ADME; conditions: human, liver microsomes, 0.5 μM compound, 0.5 mg/mL microsomes, NADPH, 40 min, 37° C.; read-out: Human liver microsome Clapp (apparent intrinsic clearance)
# Experimental: To assess the in vitro metabolic stability, the compounds (0.5 μM) were incubated in duplicates with human liver microsomes (0.5 mg/mL) in phosphate buffer and NADPH, in 96-well plates for 40 min (37° C.), using a liquid handling robot (Hamilton Microlab Star). Sample aliquots were taken at 0, 5, 10, 20 and 40 min, and dispensed into cold acetonitrile, in order to stop the reactions. The plates were centrifuged for 30 minutes before the samples were analyzed using liquid chromatography coupled to a time-of-flight mass spectrometer (AB Sciex API5600). The compound depletion over time was used to estimate the elimination rate constant, from which the apparent intrinsic clearance, Clapp, was calculated and the values are listed in Table 2.
# Sequence of TYK2 (P29597 871-1187): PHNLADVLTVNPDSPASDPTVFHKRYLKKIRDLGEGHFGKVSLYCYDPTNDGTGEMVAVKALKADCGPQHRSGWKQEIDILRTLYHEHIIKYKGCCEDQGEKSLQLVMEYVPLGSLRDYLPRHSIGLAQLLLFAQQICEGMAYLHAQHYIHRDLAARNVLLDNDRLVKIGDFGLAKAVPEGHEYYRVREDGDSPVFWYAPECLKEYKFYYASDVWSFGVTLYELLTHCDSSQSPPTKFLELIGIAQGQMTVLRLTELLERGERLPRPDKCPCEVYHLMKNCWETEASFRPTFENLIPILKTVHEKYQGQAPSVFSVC
smiles,measurement,setting,value
"O=C(NC[C@@H](O)c1ccc(F)cc1)[C@H]1CCN(c2ncnc3[nH]ccc23)CC12CC2 [Example 7, (8S)-N-[(2S)-2-(4-fluorophenyl)-2-hydroxy-ethyl]-5-(7H-pyrrolo[2,3-d]pyrimidin-4-yl)-5-azaspiro[2.5]octane-8-carboxamide]",EC50,TYK2,4.9 nM
same,EC50,JAK1,0.6 nM
same,EC50,JAK3,8.8 nM
same,EC50,JAK2,1.7 nM
same,CLint scaled at 0.5 μM,[1],> 12 L/h/kg
"N#Cc1ccc([C@H](O)CNC(=O)[C@H]2CCN(c3ncnc4[nH]ccc34)CC23CC3)cc1 [Example 8, (8S)-N-[(2S)-2-(4-cyanophenyl)-2-hydroxy-ethyl]-5-(7H-pyrrolo[2,3-d]pyrimidin-4-yl)-5-azaspiro[2.5]octane-8-carboxamide]",EC50,TYK2,17.7 nM
same,EC50,JAK1,0.6 nM
same,EC50,JAK3,4.9 nM
same,EC50,JAK2,2.7 nM
same,CLint scaled at 0.5 μM,[1],> 12 L/h/kg
"O=C(N[C@@H](CO)[C@@H](O)c1ccc(F)cc1)[C@H]1CCN(c2ncnc3[nH]ccc23)CC12CC2 [Example 9, (8S)-N-[(1S,2S)-2-(4-fluorophenyl)-2-hydroxy-1-(hydroxymethyl)ethyl]-5-(7H-pyrrolo[2,3-d]pyrimidin-4-yl)-5-azaspiro[2.5]octane-8-carboxamide]",EC50,TYK2,7.7 nM
same,EC50,JAK1,0.7 nM
same,EC50,JAK3,7 nM
same,EC50,JAK2,1.6 nM
same,CLint scaled at 0.5 μM,[1],> 12 L/h/kg
"O=C(NC[C@H](O)C1CCOCC1)[C@H]1CCN(c2ncnc3[nH]ccc23)CC12CC2 [Example 10, (8S)-N-[(2R)-2-hydroxy-2-tetrahydropyran-4-yl-ethyl]-5-(7H-pyrrolo[2,3-d]pyrimidin-4-yl)-5-azaspiro[2.5]octane-8-carboxamide]",EC50,TYK2,10.8 nM
same,EC50,JAK1,0.8 nM
same,EC50,JAK3,11.7 nM
same,EC50,JAK2,2.9 nM
same,CLint scaled at 0.5 μM,[1],1.68 L/h/kg
"O=C(NC[C@H](O)C1CCCC1)[C@H]1CCN(c2ncnc3[nH]ccc23)CC12CC2 [Example 11, (8S)-N-[(2R)-2-cyclopentyl-2-hydroxy-ethyl]-5-(7H-pyrrolo[2,3-d]pyrimidin-4-yl)-5-azaspiro[2.5]octane-8-carboxamide]",EC50,TYK2,18.2 nM
same,EC50,JAK1,0.8 nM
same,EC50,JAK3,6.7 nM
same,EC50,JAK2,2.1 nM
same,CLint scaled at 0.5 μM,[1],8.88 L/h/kg
"O=C(NC[C@@H](O)c1ccc(F)cn1)[C@H]1CCN(c2ncnc3[nH]ccc23)CC12CC2 [Example 12, (8S)-N-[(2R)-2-(5-fluoro-2-pyridyl)-2-hydroxy-ethyl]-5-(7H-pyrrolo[2,3-d]pyrimidin-4-yl)-5-azaspiro[2.5]octane-8-carboxamide]",EC50,TYK2,13.9 nM
same,EC50,JAK1,0.8 nM
same,EC50,JAK3,26.5 nM
same,EC50,JAK2,4 nM
same,CLint scaled at 0.5 μM,[1],8.58 L/h/kg
"N#Cc1ccc(CNC(=O)[C@H]2CCN(c3ncnc4[nH]ccc34)CC23CC3)cc1 [Example 13, (8S)-N-[(4-cyanophenyl)methyl]-5-(7H-pyrrolo[2,3-d]pyrimidin-4-yl)-5-azaspiro[2.5]octane-8-carboxamide]",EC50,TYK2,81.1 nM
same,EC50,JAK1,0.9 nM
same,EC50,JAK3,8.9 nM
same,EC50,JAK2,6.1 nM
same,CLint scaled at 0.5 μM,[1],4.92 L/h/kg
"C[C@H](NC(=O)[C@H]1CCN(c2ncnc3[nH]ccc23)CC12CC2)c1ccc(C#N)c(F)c1 [Example 14, (8S)-N-[(1S)-1-(4-cyano-3-fluoro-phenyl)ethyl]-5-(7H-pyrrolo[2,3-d]pyrimidin-4-yl)-5-azaspiro[2.5]octane-8-carboxamide]",EC50,TYK2,26.8 nM
same,EC50,JAK1,0.9 nM
same,EC50,JAK3,6.5 nM
same,EC50,JAK2,2.2 nM
same,CLint scaled at 0.5 μM,[1],> 12 L/h/kg
"O=C(NC[C@H](O)C1CCCCC1)[C@H]1CCN(c2ncnc3[nH]ccc23)CC12CC2 [Example 15, (8S)-N-[(2R)-2-cyclohexyl-2-hydroxy-ethyl]-5-(7H-pyrrolo[2,3-d]pyrimidin-4-yl)-5-azaspiro[2.5]octane-8-carboxamide]",EC50,TYK2,7.4 nM
same,EC50,JAK1,0.9 nM
same,EC50,JAK3,3.7 nM
same,EC50,JAK2,1.7 nM
same,CLint scaled at 0.5 μM,[1],> 12 L/h/kg
"N#Cc1ccc(CNC(=O)[C@H]2CCN(c3ncnc4[nH]ccc34)CC23CC3)cc1F [Example 16, (8S)-N-[(4-cyano-3-fluoro-phenyl)methyl]-5-(7H-pyrrolo[2,3-d]pyrimidin-4-yl)-5-azaspiro[2.5]octane-8-carboxamide]",EC50,TYK2,44.3 nM
same,EC50,JAK1,1 nM
same,EC50,JAK3,7.1 nM
same,EC50,JAK2,3.6 nM
same,CLint scaled at 0.5 μM,[1],10.8 L/h/kg
"O=C(N[C@@H](CO)c1ccc(F)cc1)[C@H]1CCN(c2ncnc3[nH]ccc23)CC12CC2 [Example 17, (8S)-N-[(1R)-1-(4-fluorophenyl)-2-hydroxy-ethyl]-5-(7H-pyrrolo[2,3-d]pyrimidin-4-yl)-5-azaspiro[2.5]octane-8-carboxamide]",EC50,TYK2,20.5 nM
same,EC50,JAK1,1 nM
same,EC50,JAK3,5.7 nM
same,EC50,JAK2,3 nM
same,CLint scaled at 0.5 μM,[1],2.58 L/h/kg
"N#Cc1ccc([C@H](CO)NC(=O)[C@H]2CCN(c3ncnc4[nH]ccc34)CC23CC3)cc1 [Example 18, (8S)-N-[(1R)-1-(4-cyanophenyl)-2-hydroxy-ethyl]-5-(7H-pyrrolo[2,3-d]pyrimidin-4-yl)-5-azaspiro[2.5]octane-8-carboxamide]",EC50,TYK2,45.5 nM
same,EC50,JAK1,1 nM
same,EC50,JAK3,7.5 nM
same,EC50,JAK2,3.5 nM
same,CLint scaled at 0.5 μM,[1],2.64 L/h/kg
"N#Cc1ccc([C@H](CO)NC(=O)C2CCN(c3ncnc4[nH]ccc34)CC23CC3)cc1 (stereo partly drawn) [Example 19, N-[(1R)-1-(4-cyanophenyl)-2-hydroxy-ethyl]-5-(7H-pyrrolo[2,3-d]pyrimidin-4-yl)-5-azaspiro[2.5]octane-8-carboxamide]",EC50,TYK2,109 nM
same,EC50,JAK1,1.1 nM
same,EC50,JAK3,8.4 nM
same,EC50,JAK2,4 nM
same,CLint scaled at 0.5 μM,[1],5.28 L/h/kg
"C[C@H](NC(=O)[C@H]1CCN(c2ncnc3[nH]ccc23)CC12CC2)c1ccc(C#N)cc1F [Example 20, (8S)-N-[(1S)-1-(4-cyano-2-fluoro-phenyl)ethyl]-5-(7H-pyrrolo[2,3-d]pyrimidin-4-yl)-5-azaspiro[2.5]octane-8-carboxamide]",EC50,TYK2,51.3 nM
same,EC50,JAK1,1.1 nM
same,EC50,JAK3,17.6 nM
same,EC50,JAK2,3.1 nM
same,CLint scaled at 0.5 μM,[1],9.66 L/h/kg
"C[C@H](NC(=O)C1CCN(c2ncnc3[nH]ccc23)CC12CC2)c1ccc(C#N)cc1 (stereo partly drawn) [Example 21, N-[(1S)-1-(4-cyanophenyl)ethyl]-5-(7H-pyrrolo[2,3-d]pyrimidin-4-yl)-5-azaspiro[2.5]octane-8-carboxamide]",EC50,TYK2,52.1 nM
same,EC50,JAK1,1.1 nM
same,EC50,JAK3,7.7 nM
same,EC50,JAK2,2.5 nM
same,CLint scaled at 0.5 μM,[1],10.2 L/h/kg
"C[C@H](NC(=O)[C@H]1CCN(c2ncnc3[nH]ccc23)CC12CC2)c1ccc(C#N)cc1 [Example 22, (8S)-N-[(1S)-1-(4-cyanophenyl)ethyl]-5-(7H-pyrrolo[2,3-d]pyrimidin-4-yl)-5-azaspiro[2.5]octane-8-carboxamide]",EC50,TYK2,43.9 nM
same,EC50,JAK1,1.2 nM
same,EC50,JAK3,7.1 nM
same,EC50,JAK2,3.2 nM
same,CLint scaled at 0.5 μM,[1],7.38 L/h/kg
"O=C(NCC1(CO)CC(F)(F)C1)[C@H]1CCN(c2ncnc3[nH]ccc23)CC12CC2 [Example 23, (8S)-N-[[3,3-difluoro-1-(hydroxymethyl)cyclobutyl]methyl]-5-(7H-pyrrolo[2,3-d]pyrimidin-4-yl)-5-azaspiro[2.5]octane-8-carboxamide]",EC50,TYK2,19.8 nM
same,EC50,JAK1,1.3 nM
same,EC50,JAK3,6.7 nM
same,EC50,JAK2,2.7 nM
same,CLint scaled at 0.5 μM,[1],2.4 L/h/kg
"O=C(N[C@@H](CO)C1CCCCC1)[C@H]1CCN(c2ncnc3[nH]ccc23)CC12CC2 [Example 24, (8S)-N-[(1R)-1-cyclohexyl-2-hydroxy-ethyl]-5-(7H-pyrrolo[2,3-d]pyrimidin-4-yl)-5-azaspiro[2.5]octane-8-carboxamide]",EC50,TYK2,19.9 nM
same,EC50,JAK1,1.3 nM
same,EC50,JAK3,10.9 nM
same,EC50,JAK2,2.7 nM
same,CLint scaled at 0.5 μM,[1],9.54 L/h/kg
"O=C(NC[C@H](O)C1CCC1)[C@H]1CCN(c2ncnc3[nH]ccc23)CC12CC2 [Example 25, (8S)-N-[(2R)-2-cyclobutyl-2-hydroxy-ethyl]-5-(7H-pyrrolo[2,3-d]pyrimidin-4-yl)-5-azaspiro[2.5]octane-8-carboxamide]",EC50,TYK2,11.1 nM
same,EC50,JAK1,1.3 nM
same,EC50,JAK3,13.6 nM
same,EC50,JAK2,3.4 nM
same,CLint scaled at 0.5 μM,[1],2.76 L/h/kg
"N#Cc1ccc(CNC(=O)C2CCN(c3ncnc4[nH]ccc34)CC23CC3)cc1 (stereo not shown) [Example 26, N-[(4-cyanophenyl)methyl]-5-(7H-pyrrolo[2,3-d]pyrimidin-4-yl)-5-azaspiro[2.5]octane-8-carboxamide]",EC50,TYK2,196 nM
same,EC50,JAK1,1.4 nM
same,EC50,JAK3,11.2 nM
same,EC50,JAK2,6.4 nM
same,CLint scaled at 0.5 μM,[1],4.68 L/h/kg
